Tests used:
Assay type in all cases: ADME; call rule not given here
[1] = Drug uptake in C57BL/6J mouse neuronal cytosol at 100 uM after 1 min by confocal microscopy co-treated with 20 uM 2-TRLG
[2] = Drug uptake in C57BL/6J mouse neuronal cytosol at 20 uM after 1 min by confocal microscopy co-treated with 100 uM 2-NBDG
[3] = Drug uptake in C57BL/6J mouse neuronal cytosol at 20 uM after 1 min by confocal microscopy co-treated with 100 uM 2-NBDLG

Row | Drug uptake [2] | Drug uptake [3] | SMILES | Drug uptake [1]
1 |  |  | O=[N+]([O-])c1ccc(N[C@H]2C(O)O[C@H](CO)[C@@H](O)[C@@H]2O)c2nonc12 (stereo partly specified) | Active
2 | Not Active | Active | O=S(=O)([O-])c1cc(S(=O)(=O)N[C@@H]2C(O)O[C@@H](CO)[C@H](O)[C@H]2O)ccc1C1=c2cc3c4c(c2Oc2c1cc1c5c2CCCN5CCC1)CCC[N+]=4CCC3 (stereo partly specified) | 
3 | Not Active | Active | O=S(=O)([O-])c1ccc(C2=c3cc4c5c(c3Oc3c2cc2c6c3CCCN6CCC2)CCC[N+]=5CCC4)c(S(=O)(=O)N[C@@H]2C(O)O[C@@H](CO)[C@H](O)[C@H]2O)c1 (stereo partly specified) | 
4 |  |  | O=[N+]([O-])c1ccc(N[C@@H]2C(O)O[C@@H](CO)[C@H](O)[C@H]2O)c2nonc12 (stereo partly specified) | Not Active
